Earlier results as cited in US20060079481A1, “Method of treating/preventing mucositis” (priority 2004, published 2006).

B1: filgrastim: a granulocyte colony-stimulating factor (protein, chains of the INN, looked up)
chain: MTPLGPASSLPQSFLLKCLEQVRKIQGDGAALQEKLCATYKLCHPEELVLLGHSLGIPWAPLSSCPSQALQLAGCLSQLHSGLFLYQGLLQALEGISPELGPTLDTLQLDVADFATTIWQQMEELGMAPALQPTQGAMPAFASAFQRRAGGVLVASHLQSFLEVSYRVLRHLAQP

Key:
[1] = system: oral mucositis; details: Dodd et al. 1996
[2] = system: oral mucositis; details: for effect in oral mucositis / risk of indirect mucotoxicity from bacteria and fungi: literature reports; for risk of indirect mucotoxicity from bacteria and fungi: prophylactic use

Molecule	effect in oral mucositis [2]	risk of indirect mucotoxicity from bacteria and fungi [2]	other results
O=c1[nH]cc(F)c(=O)[nH]1 [5-fluorouracil]	–	–	prevalence of chemotherapy-induced oral mucositis [1]: 75%
Oc1ncnc2[nH]ncc12 [allopurinol]	failed to show effect	–	–
[H]/N=C(\N/C(=N/[H])NCCCCCCNC(=N)NC(=N)Nc1ccc(Cl)cc1)Nc1ccc(Cl)cc1 [chlorhexidine]	–	reduce the risk	–
Clc1ccccc1C(c1ccccc1)(c1ccccc1)n1ccnc1 [clotrimazole]	–	reduce the risk	–
C[C@@H]1[C@H](O)[C@@H](C)/C=C/C=C/CC/C=C/C=C/C=C/C=C/C(O[C@H]2O[C@H](C)[C@@H](O)[C@H](N)[C@@H]2O)CC2O[C@](O)(CC(O)C(O)CCC(O)CC(O)CC(O)CC(=O)O[C@H]1C)CC(O)C2C(=O)O (stereo partly drawn) [nystatin]	–	reduce the risk	–
CC(=O)CCCCn1c(=O)c2c(ncn2C)n(C)c1=O [pentoxifylline]	failed to show effect	–	–
CCCCC[C@H](O)/C=C/[C@H]1[C@H](O)CC(=O)[C@@H]1C/C=C\CCCC(=O)O [prostaglandin E2]	failed to show effect	–	–
Sucralfate	–	–	benefit in oral mucositis ([2]; patients receiving a cisplatin/fluorouracil regimen for various solid tumors (Pfeiffer et al. 1990)): modest benefit
B1	failed to show effect	–	–
